Results reported in US11008286B2, “Amino mercaptan compound and preparation method therefor and use thereof in protection against radiation” (Institute of Radiation Medicine Chinese Academy of Medical …, priority 2016, dated 2021).
Counter-ions that a name gives are not always drawn. Like-named read-outs stand apart in the source and are kept apart here. Where a SMILES comes first, the peptide text is derived from it. [ ]: non-standard residue; d: D form.

Assays:
[1] = test system: C57 male mice; test: Example G: effect of stereoisomerism on survival rate of mice under 7.5Gy irradiation; assay type: in vivo; conditions: 200 mg/kg IP 30 min before irradiation; for deaths: 9 mice per group
Source text: Laboratory animals: C57 male mice, 19-21 g, purchased from Beijing HFK Bioscience Co. Ltd., license number SCXK (Beijing), 9 mice in each group.

[2] = test system: C57 male mice; conditions: for survival rates compared with amifostine: absorbed dose 6.8Gy and 7.2Gy;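 for survival rate: mice aged 8-10 weeks, weighing 20-22 g, with deaths logged and survival rate computed on day 30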;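 for survival rates compared with amifostine: mice aged 8-10 weeks, weighing 20-22 g, with deaths logged and survival rate computed on day 30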
Procedure: Laboratory animals: C57 male mice, 8-10 weeks old, 20-22 g, were divided into 4 groups, 5 or 10 or 15 or 20 or 25 mice in each group.
Observation index: The death and weight of the mice were recorded, and the survival rate was calculated on the 30th day.

[3] = test system: C57BL/6 mice; test: Example A: 30-day survival of mice after whole-body 137Cs γ-ray irradiation; assay type: in vivo; conditions: 200 mg/kg intraperitoneally
Procedure: Material: The gamma ray irradiation device is a ^137Cs irradiator, with a dose rate of 0.7Gy/min. C57BL/6 mice, male, weighing 21-22 g, purchased from Beijing HFK Bioscience Co. Ltd., certificate number SCXK (Beijing) 2014-0004, grouped as: no irradiation group, irradiation and blank solvent group, irradiation and administration group, with 5 mice in each group.
The 30-day survival of the mice in each group was observed, the survival rates were calculated, the body weights were followed, and the organs and white blood cells of mice in each group were compared after 30 days.
Results: At the same administration dose of the four compounds (200 mg/kg, one dose at 24 hours before irradiation and one dose at 30 minutes before irradiation), one-time whole body irradiation with 6.8Gy, 7.2Gy and 7.5Gy ^137Cs gamma rays was performed, respectively, compared with the radiation and blank solvent group. The 30-day survival rate of mice was 100% when compound 1 was used in the cases of irradiations of 6.8Gy and 7.2Gy, respectively. The effects of normal control group and compound 1, compound 2, compound 3 and compound 4 on organs and leukocytes in mice 30 days after irradiation with 7.2Gy are shown in FIG. 4. The effects of normal control group and compound 1 on organs and leukocytes in mice 30 days after irradiation with 6.8Gy and 7.5Gy, respectively, are shown in FIGS. 2 and 6.

[4] = test system: C57 male mice; assay type: in vivo; conditions: no irradiation, 30-day;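 for survival rate: mice aged 8-10 weeks, weighing 20-22 g, with deaths logged and survival rate computed on day 30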;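 for survival rates compared with amifostine: mice aged 8-10 weeks, weighing 20-22 g, with deaths logged and survival rate computed on day 30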
Procedure: Administration and grouping: Each group was intraperitoneally injected with one corresponding dose of amifostine. • Each group was intraperitoneally injected with one corresponding dose of Example 17 (IP).
The 30-day survival rate of mice in each group was recorded.

[5] = 6.8Gy, 200 mpk IP 30 min before irradiation, day 30
[6] = 7.5Gy, 400 mpk IP 90 min before irradiation
[7] = 7.5Gy, 800 mpk IP 90 min before irradiation

SMILES | Survival number/Test number [1] | deaths [1] | Survival number/Test number ([2]; 7.2Gy, 200 mpk IP, day 30) | Survival rate ([2]; 7.2Gy, 200 mpk IP, day 30) | survival rates compared with amifostine [2] | Survival rate [1] | other results
N[C@@H](CS)C(=O)O [L-Cys, L-cysteine, reference compound] | 1/9 | (8 deaths) | – | – | – | – | –
CNC(=O)C(CS)NC(=O)C(CS)NC(=O)C(CS)NC (racemic) [Example 20, (RS)-3-mercapto-N—((RS)-3-mercapto-1-(((RS)-3-mercapto-1-(methylamino)-1-oxopropan-2-yl)amino)-1-oxopropan-2-yl)-2-(methylamino) propanamide trifluoroacetate] | 1/9 | (8 deaths) | – | – | – | – | –
CNC(=O)[C@@H](CS)NC(=O)[C@@H](CS)NC(=O)[C@@H](CS)NC [Example 8, (S)-3-mercapto-N—((S)-3-mercapto-1-(((S)-3-mercapto-1-(methylamino)-1-oxopropan-2-yl)amino)-1-oxopropan-2-yl)-2-(methylamino) propanamide] | – | – | 1/5 | 20% | survival rates comparable to those using amifostine | – | –
N[C@H](CS)C(=O)O [D-Cys, D-cysteine, reference compound] | 0/9 | (9 deaths) | – | – | – | – | –
CNC(=O)[C@H](CS)NC(=O)[C@H](CS)NC [Example 2, (R)-3-mercapto-N—((R)-3-mercapto-1-(methylamino)-1-oxopropan-2-yl)-2-(methylamino) propionamide trifluoroacetate] | 4/9 | (5 deaths) | 10/15 | 66.67% | survival rates comparable to those using amifostine | approximately 44% | –
NC(=O)[C@H](CS)NC(=O)[C@H](CS)NC(=O)[C@@H](N)CS [Example 3, (R)-2-amino-N—((R)-1-(((R)-1-amino-3-mercapto-1-oxopropan-2-yl)amino)-3-mercapto-1-oxopropan-2-yl)-3-mercaptopropanamide trifluoroacetate] (H-Cys-Cys-Cys-NH2) | 2/9 | (7 deaths) | 10/15 | 66.67% | survival rates comparable to those using amifostine | approximately 22% | –
NC(=O)[C@@H](CS)NC(=O)[C@@H](N)CS [Example 18, (R)-2-amino-N—((S)-1-amino-3-mercapto-1-oxopropan-2-yl)-3-mercaptopropanamide trifluoroacetate] (H-Cys-[dC]-NH2) | – | – | 4/5 | 80% | survival rates comparable to those using amifostine | – | –
CNC(=O)C(CS)NC(=O)C(CS)NC (racemic) [Example 19, 3-mercapto-N-(3-mercapto-1-(methylamino)-1-oxopropan-2-yl)-2-(methylamino) propionamide trifluoroacetate] | 2/9 | (7 deaths) | – | – | – | – | –
NC(=O)[C@H](CS)NC(=O)[C@@H](N)CS [Example 1, (R)-2-amino-N—((R)-1-amino-3-mercapto-1-oxopropan-2-yl)-3-mercaptopropanamide trifluoroacetate] (H-Cys-Cys-NH2) | 1/9 | (8 deaths) | 6/10 | 60% | survival rates comparable to those using amifostine | approximately 11% | 30-day survival rate ([3]; 6.8Gy 137Cs γ rays whole body): 100%; 30-day survival rate ([3]; 7.2Gy 137Cs γ rays whole body): 100%
NC(=O)[C@H](CS)NC(=O)[C@H](N)CS [Example 17, (S)-2-amino-N—((R)-1-amino-3-mercapto-1-oxopropan-2-yl)-3-mercaptopropanamide trifluoroacetate] (H-[dC]-Cys-NH2) | – | – | 9/10 | 90% | survival rates comparable to those using amifostine | – | Survival number/Test number [2, 5]: 5/5; Survival rate [2, 5]: 100%; Survival number/Test number ([2]; 7.5Gy, 200 mpk IP, day 30): 0/5; Survival rate ([2]; 7.5Gy, 200 mpk IP, day 30): 0%; Survival number/Test number [2, 6]: 0/5; Survival rate [2, 6]: 0%; Survival number/Test number [2, 7]: 0/5; Survival rate [2, 7]: 0%; Survival number/Test number ([4]; 400 mpk IP): 5/5; Survival number/Test number ([4]; 800 mpk IP): 5/5; Survival number/Test number ([4]; 1600 mpk IP): 4/5
